Reference: PMC5862576, “Mitochondrial fission as a driver of stemness in tumor cells: mDIVI1 inhibits mitochondrial function, cell migration and cancer stem cell (CSC) signalling” (Oncotarget, 2018)

Tests used:
[1] = system: MCF7 cells; assay: Mitochondrial superoxide (MitoSOX, flow cytometry); assay type: cell-based, Human; settings: both concentrations; 24 hour, 2 and 5 days; vs vehicle
Protocol: For both assays, 2 × 10^5 MCF7 cells were seeded in 35 mm plates. When cells were attached, either vehicle or mDIVI1 were added to the cells for 24, 48 hours or 5 days in triplicate. Reactive oxygen species (ROS) production was measured using CM-H2DCFDA (C6827, Invitrogen). Briefly, cells were incubated for 20 minutes at 37° C with 1 µM CM-H2DCFDA diluted in PBS and then placed in complete media for 20 minutes at 37° C in the dark, to render the dye fluorescent, according to the manufacturer. Mitochondrial superoxide was measured using MitoSOX Red Mitochondrial Superoxide Indicator (M36008, ThermoFisher Scientific). Briefly, cells were incubated for 10 minutes at 37° C in the dark with 5 µM MitoSOX diluted in PBS, according to the manufacturer. ROS signal and MitoSOX signal was quantified as mean fluorescent intensity of the viable cell population in a Fortessa flow cytometer (BD Bioscience). Results were analysed using FlowJo software.

[2] = system: Hedgehog signalling; assay: Luciferase reporter assay MCF7-GFP-GLI(luc); assay type: cell-based, Human; settings: 50 µM, 2 and 5 days
Protocol: (§1) The Cignal Lenti reporter assay (luc) was used to monitor the activity of several signalling pathways in MCF7-GFP cells as explained previously. Luciferase Assay System (E1501, Promega) was performed according to manufacturer’s instructions. 1 × 10^4 MCF7 were seeded in black-walled 96 well plates. When cells were attached, drug treatments were added for 18, 48 hours and 5 days. After treatment, Luciferase Assay was performed according to manufacturer’s instructions and light signal was acquired in the Xenogen VivoVision IVIS Lumina. Results were normalized by SRB staining of cells grown in 96-well plates in parallel.
(§2) SRB (S9012, Sigma) measures total biomass by staining cellular proteins. After treatment, cells were fixed in 10% tricloroacetic acid (T9159, Sigma) for 1 hour at 4° C, stained with SRB (S9012, Sigma) for 15 minutes, and washed 3 times with 1% acetic acid (27225, Sigma). The incorporated die was solubilized with 10 mM Tris Base, pH 8.8 (T1503, Sigma). Absorbance was spectrophotometrically measured at 562 nm in a FluoStar Omega plate reader (BMG Labtech). Background measurements were subtracted from all values.

[3] = system: MCF7 cells; assay: Tumorsphere formation assay, MCF7; assay type: cell-based, Human; settings: five days, vs vehicle
Protocol: (§3) A single cell suspension was prepared using enzymatic (1× Trypsin-EDTA, T3924, Sigma Aldrich), and manual disaggregation (25 gauge needle). Cells were plated at a density of 5000 cells/well in tumorsphere media (DMEM-F12/B27/EGF (20ng/ml)/Pen-Strep) in non-adherent conditions, in 6-well plates coated with (2-hydroxyethylmethacrylate) (poly-HEMA, P3932, Sigma) in the presence of mDIVI1 or vehicle. After 5 days of culture in a humidified incubator at 37° C, tumorspheres bigger than 50 μm were counted using an eye piece graticule.

[4] = system: Notch signalling; assay: Luciferase reporter assay MCF7-GFP-Rbp/Jk(luc); assay type: cell-based, Human; settings: 50 µM, 2 and 5 days
Protocol: as §1, §2

[5] = system: TGFβ signalling; assay: Luciferase reporter assay MCF7-GFP-SMAD(luc); assay type: cell-based, Human; settings: 50 µM, 2 and 5 days
Protocol: as §1, §2

[6] = system: MCF7 cells; assay: Extracellular flux analysis (ECAR and OCR, Seahorse XF96); assay type: cell-based, Human; settings: 48 hours
[7] = system: MCF7 cells; assay: PrestoBlue viability assay; assay type: cell-based, Human
Protocol: Cell viability was measured using the resazurin-based PrestoBlue reagent (A-13261, ThermoFisher Scientific). Briefly, 5 × 10^3 MCF7 cells were seeded into 96-well black plates. When cells were attached mDIVI1 or vehicle were added to the cells. After 2 or 5 days, PrestoBlue reagent was added to the cells and incubated for 2 hours. Plates were finally read using a FluoStar Omega plate reader (BMG Labtech) at an excitation wavelength of 544 and an emission wavelength of 590 nm. Background measurements were subtracted from all values.

[8] = system: MCF7 cells; assay: Scratch assay (wound closure); assay type: cell-based, Human; settings: 48 hours
Protocol: A hundred thousand MCF7 cells per well were seeded in 12-well plates. When cells were attached, a horizontal scratch was performed using the tip of a pipette. Immediately after, the media was removed and either fresh vehicle-containing media or mDIVI1-containing media were added to the cells for 48 hours. Four replicates were used for each condition. Cells were incubated in a 5% CO2 atmosphere at 37° C in an Incucyte ZOOM System (Essen Bioscience). The wound closure was monitored by taking pictures of each well every 4 hours. At the end of the treatment, pictures of the wells at 0 and 48 hours were analysed using ImageJ software to calculate wound closure according to the following formula: Percentage wound closure=[(wound area0h−wound area48h)/wound area0h]×100

[9] = system: E-cadherin; assay: Western blotting; assay type: cell-based, Human; settings: MCF7 cells
Protocol: At the end of the treatment, cells in suspension were spun down and lysed and attached cells were directly lysed in RIPA lysis buffer (R0278, Sigma) containing proteinase inhibitors (05 892 970 001, Roche) and kept at 4° C for 20 minutes with rotation. Lysates were cleared by centrifugation for 10 minutes at 10,000 xg and supernatants were collected. […] Bound antibodies were detected using a horseradish peroxidase-conjugated secondary antibody (ab6789 and ab6721, Abcam) and signal was obtained using Supersignal West Pico chemiluminiscent substrate (34087, ThermoScientific). Pictures were taken in a ChemiDoc XRS with Image Lab Software (BioRad).

[10] = system: MCF7 cells; assay: DAPI viability of cells in suspension (anoikis resistance, FACS); assay type: cell-based, Human
Protocol: Following mDIVI1 treatment, MCF7 cells grown either in suspension or as monolayers were analysed for their expression of CD24 and CD44. The surviving fraction after 2 days and 5 days of growth was analyzed by FACS. MCF7 cells were either trypsinised or spun down and trypsinised and incubated with CD24 (IOTest CD24-PE, Beckman Coulter) and CD44 (APC mouse anti-human CD44, 559942, BD Pharmingen) for 15 minutes on ice. Cells were then rinsed twice in PBS, spun down, and resuspended with DAPI dye (D1306, Molecular probes) at 3 μM in PBS for 10 minutes. Samples were then analyzed by FACS (Fortessa, BD Bioscence). Only the live cell population, identified using the DAPI staining, was analyzed for CD24/CD44 expression. Data were analyzed using FlowJo software.

[11] = system: A549 lung cancer; assay: Tumorsphere formation assay, A549; assay type: cell-based; settings: five days
Protocol: as §3

SMILES: COc1cc(-n2c(=S)[nH]c3ccccc3c2=O)c(Cl)cc1Cl [mDIVI1, 3-(2,4-Dichloro-5-methoxyphenyl) 2,3-dihydro 2-thioxo-4(1H) quinazolinone]
- mitochondrial superoxide production (MitoSOX) [1]: significantly increased
- Hedgehog/GLI pathway luciferase activity [2]: strikingly caused the inhibition
- decrease of MCF7 tumorsphere number ([3]; 10 µM): 50%
- decrease of MCF7 tumorsphere number ([3]; 50 µM): 80%
- decrease of MCF7 tumorsphere number ([3]; 100 µM): 95%
- Notch/Rbp pathway luciferase activity [4]: strikingly caused the inhibition
- TGFβ/SMAD pathway luciferase activity [5]: strikingly caused the inhibition
- basal glycolysis (ECAR) [6]: did not have a significant effect
- oxygen consumption linked to ATP production [6]: significantly reduced
- oxygen consumption linked to basal respiration [6]: significantly reduced
- spare respiratory capacity ([6]; all mDIVI1 concentrations): slightly increased
- OCR/ECAR ratio ([6]; vs vehicle): decreased dose-dependently
- oxygen consumption linked to maximal respiration ([6]; to a lesser extent, at higher concentrations): significantly reduced
- glycolytic capacity (ECAR) ([6]; ≥10 µM): reduced
- glycolytic reserve (ECAR) ([6]; ≥10 µM): reduced
- effect on MCF7 cell viability ([7]; 10 µM, 48 hours): did not decrease viability
- reduction of MCF7 cell viability ([7]; 10 µM, five days): 20%
- reduction of MCF7 cell viability ([7]; 50 µM, 48 hours): 20%
- reduction of MCF7 cell viability ([7]; 50 µM, five days): over 65%
- reduction of MCF7 cell viability ([7]; 100 µM, 48 hours): 20%
- reduction of MCF7 cell viability ([7]; 100 µM, five days): 85%
- reduction of percentage of wound closure vs vehicle ([8]; 10 µM): 14%
- reduction of percentage of wound closure vs vehicle ([8]; 50 µM): 44%
- E-cadherin expression (immunoblot) [9]: reduction in the expression
- cell viability under anchorage-independent conditions (DAPI) vs vehicle [10]: no significant differences
- decrease of A549 tumorsphere forming capacity ([11]; 10 µM): > 15%
- decrease of A549 tumorsphere forming capacity ([11]; 50 µM): > 80%
